Reference: patent US4431665A, “Acylated laidlomycin derivatives” (priority 1980, dated 1984)

Experiments:
[1] = system: rumen microorganisms (mixed microbial population of rumen contents); assay: Enhancement of intraruminal propionic acid production, batch culture fermentation of rumen contents; format: cell-based, bovine (rumen-fistulated); details: 9 h, 39° C.
Method: Enhancement of intraruminal propionic acid production is determined using a batch culture fermentation system. Rumen contents from a rumen-fistulated bovine are mixed with an equal amount of buffer which contains mineral, energy and nitrogen sources required for continued growth and metabolism of the mixed microbial population. Aliquots of this inoculum then are transferred to incubation vessels containing appropriate amounts of sodium laidlomycin (Na L.) (see Example 1A), and L. butyrate (L.C4) (prepared according to the procedure of Example 1A). After 9 hours of incubation at 39° C., concentrations of individual volatile fatty acids in each incubation vessel are determined by gas-liquid chromatography. The net production of each individual volatile fatty acid (acetic [AA], propionic [PA] and butyric [BA]) is calculated as the difference between the concentration after incubation and the concentration before incubation. The molar percentage of propionic acid produced is calculated from the following equation: [formula]
The comparative activities of sodium laidlomycin (Na L.) and the laidlomycin butyrate upon propionic acid and lactic acid production are set forth in Tables 1 and 2 where the concentration is in micrograms per ml (μg/ml).
(§1) The procedure of Example 2 was followed to compare laidlomycin (L.), sodium L. (Na L.), L.-propionate (L.C3), L. butyrate (L.C4), L. isobutyrate (L. isoC4), L. pentanoate (L.C5) and L. hexanoate (L.C6).
(§2) The procedure of Example 2 was followed to compare the activities of L. heptanoate (L. C7), L. octanoate (L. C8), L. decanoate (L. C10) and L. dodecanoate (L. C12) in increasing propionic acid production and inhibiting lactic acid production.
(§3) The procedure of Example 2 was followed to compare the activities of laidlomycin (L.) acetate (L. C2), L. pentanoate (L. C5), L. stearate (L. C18), L. cyclobutylcarboxylate, L. cyclopentylcarboxylate, L. cyclohexylcarboxylate and L. cyclopropylcarboxylate.

[2] = system: rumen contents (lactic acid accumulation); assay: Inhibition of lactic acid accumulation, second batch culture fermentation of rumen contents with glucose; format: cell-based, bovine (rumen fistulated); details: 6 h, 6 h, 39° C.; for activity at 1.25 µg/mL / activity at 5 µg/mL / activity at 20 µg/mL / activity at 0.31 µg/mL: Bos taurus, read-out: Accumulation of Lactic Acid - % of Control, Table 4; for Lactic Acid Accumulation (μ mol/ml): Table 8, 0 μg/ml: 40.47; for Lactic Acid Accumulation: Table 6, 0 μg/ml: 36.65
Method: Inhibition of lactic acid accumulation is determined using a second batch culture fermentation system. Rumen contents from a rumen fistulated bovine are mixed with an equal amount of buffer which contains a 150 mM concentration of glucose. Following 6 hours of incubation at 39° C., lactic acid produced in the fermentation is analyzed by a specific enzymatic assay. The concentration of lactic acid in the fermentation broth is quantified by the increase in absorbance of light at […] when nicotinamide adenine dinucleotide is reduced by lactic acid with the aid of lactate dehydrogenase. […]
as §1, §2, §3

[3] = Table 3, 1.25 μg/ml, 0 μg/ml: 28.5
[4] = Table 3, 5 μg/ml, 0 μg/ml: 28.5
[5] = Table 3, 20 μg/ml, 0 μg/ml: 28.5
[6] = Table 3, .31 μg/ml, 0 μg/ml: 28.5
[7] = Table 5, 1.25 μg/ml, 0 μg/ml: 35.5
[8] = Table 5, 2.5 μg/ml, 0 μg/ml: 35.5
[9] = Table 5, 5 μg/ml, 0 μg/ml: 35.5
[10] = Table 5, 10 μg/ml, 0 μg/ml: 35.5
[11] = Table 5, 20 μg/ml, 0 μg/ml: 35.5
[12] = Table 5, .31 μg/ml, 0 μg/ml: 35.5
[13] = Table 5, .63 μg/ml, 0 μg/ml: 35.5

Row | SMILES | % Propionic Acid [1, 3] | % Propionic Acid [1, 4] | % Propionic Acid [1, 5] | % Propionic Acid [1, 6] | activity at 1.25 µg/mL ([2]; 1.25 μg/ml) | activity at 5 µg/mL ([2]; 5 μg/ml) | % Propionic Acid [1, 7] | % Propionic Acid [1, 8] | % Propionic Acid [1, 9] | % Propionic Acid [1, 10] | % Propionic Acid [1, 11] | % Propionic Acid [1, 12] | % Propionic Acid [1, 13] | Lactic Acid Accumulation ([2]; 1.25 μg/ml) | Lactic Acid Accumulation ([2]; 2.5 μg/ml) | Lactic Acid Accumulation ([2]; 5 μg/ml) | Lactic Acid Accumulation ([2]; 10 μg/ml) | Lactic Acid Accumulation ([2]; 20 μg/ml) | Lactic Acid Accumulation ([2]; .31 μg/ml) | Lactic Acid Accumulation ([2]; .63 μg/ml) | other results
1 | CCCCC(=O)OCC1(O)OC(C2CC(C)C(C3(C)CCC(C4(C)CCC5(CC(O)C(C)C(C(C)C(OC(=O)CC)C(C)C(=O)O)O5)O4)O3)O2)C(C)CC1C (centres unmarked) [L. C5, laidlomycin pentanoate] | 33.9% | 36.1% | 39.7% | 30.6% | 54% | 13% |  |  |  |  |  |  |  |  |  |  |  |  |  |  | % Propionic Acid ([1]; Table 7, 1.25 μg/ml, 0 μg/ml: 36.1): 48.7%; % Propionic Acid ([1]; Table 7, 2.5 μg/ml, 0 μg/ml: 36.1): 50.9%; % Propionic Acid ([1]; Table 7, 5 μg/ml, 0 μg/ml: 36.1): 49.9%; % Propionic Acid ([1]; Table 7, 10 μg/ml, 0 μg/ml: 36.1): 51.6%; % Propionic Acid ([1]; Table 7, 20 μg/ml, 0 μg/ml: 36.1): 51.1%; % Propionic Acid ([1]; Table 7, .313 μg/ml, 0 μg/ml: 36.1): 45.9%; % Propionic Acid ([1]; Table 7, .625 μg/ml, 0 μg/ml: 36.1): 48.1%; activity at 20 µg/mL ([2]; 20 μg/ml): 11%; activity at 0.31 µg/mL ([2]; .31 μg/ml): 109%; Lactic Acid Accumulation (μ mol/ml) ([2]; 1.25 μg/ml): 4.67 μ mol/ml; Lactic Acid Accumulation (μ mol/ml) ([2]; 2.5 μg/ml): 3.75 μ mol/ml; Lactic Acid Accumulation (μ mol/ml) ([2]; 5 μg/ml): 4.04 μ mol/ml; Lactic Acid Accumulation (μ mol/ml) ([2]; 10 μg/ml): 4.63 μ mol/ml; Lactic Acid Accumulation (μ mol/ml) ([2]; 20 μg/ml): 5.13 μ mol/ml; Lactic Acid Accumulation (μ mol/ml) ([2]; .313 μg/ml): 24.62 μ mol/ml; Lactic Acid Accumulation (μ mol/ml) ([2]; .625 μg/ml): 11.91 μ mol/ml
2 | CCCCCC(=O)OCC1(O)OC(C2CC(C)C(C3(C)CCC(C4(C)CCC5(CC(O)C(C)C(C(C)C(OC(=O)CC)C(C)C(=O)O)O5)O4)O3)O2)C(C)CC1C (centres unmarked) [L. C6, laidlomycin hexanoate] | 37.1% | 40.1% | 41.7% | 33.0% | 18% | 11% |  |  |  |  |  |  |  |  |  |  |  |  |  |  | activity at 20 µg/mL ([2]; 20 μg/ml): 14%; activity at 0.31 µg/mL ([2]; .31 μg/ml): 60%
3 | CCCCCCC(=O)OCC1(O)OC(C2CC(C)C(C3(C)CCC(C4(C)CCC5(CC(O)C(C)C(C(C)C(OC(=O)CC)C(C)C(=O)O)O5)O4)O3)O2)C(C)CC1C (centres unmarked) [L. C7, laidlomycin heptanoate] |  |  |  |  |  |  | 46.2% | 46.9% | 48.4% | 48.1% | 47.2% | 41.4% | 45.3% | 1.90 µmol/mL | 1.32 µmol/mL | 1.16 µmol/mL | 1.46 µmol/mL | 1.94 µmol/mL | 38.37 µmol/mL | 14.12 µmol/mL | 
4 | CCCCCCCC(=O)OCC1(O)OC(C2CC(C)C(C3(C)CCC(C4(C)CCC5(CC(O)C(C)C(C(C)C(OC(=O)CC)C(C)C(=O)O)O5)O4)O3)O2)C(C)CC1C (centres unmarked) [L. C8, laidlomycin octanoate] |  |  |  |  |  |  | 46.4% | 47.3% | 48.2% | 47.5% | 49.4% | 42.7% | 43.9% | 1.21 µmol/mL | 1.31 µmol/mL | 1.27 µmol/mL | 1.39 µmol/mL | 2.14 µmol/mL | 41.96 µmol/mL | 9.41 µmol/mL | 
5 | CCCCCCCCCC(=O)OCC1(O)OC(C2CC(C)C(C3(C)CCC(C4(C)CCC5(CC(O)C(C)C(C(C)C(OC(=O)CC)C(C)C(=O)O)O5)O4)O3)O2)C(C)CC1C (centres unmarked) [L. C10, laidlomycin decanoate] |  |  |  |  |  |  | 45.5% | 47.1% | 46.7% | 46.6% | 48.1% | 39.9% | 43.6% | 0.84 µmol/mL | 1.20 µmol/mL | 0.94 µmol/mL | 0.94 µmol/mL | 0.96 µmol/mL | 36.86 µmol/mL | 30.78 µmol/mL | 
6 | CCCCCCCCCCCC(=O)OCC1(O)OC(C2CC(C)C(C3(C)CCC(C4(C)CCC5(CC(O)C(C)C(C(C)C(OC(=O)CC)C(C)C(=O)O)O5)O4)O3)O2)C(C)CC1C (centres unmarked) [L. C12, laidlomycin dodecanoate] |  |  |  |  |  |  | 45.3% | 46.1% | 46.8% | 47.7% | 48.0% | 42.0% | 43.8% | 11.19 µmol/mL | 1.04 µmol/mL | 3.32 µmol/mL | 2.16 µmol/mL | 1.65 µmol/mL | 34.90 µmol/mL | 38.01 µmol/mL | 
